Experiment: Amorphonisation of co-milled drug by X-ray diffraction and DSC
Assay type: physicochemical
Conditions: vibration ball mill
Method: Amorphonisation of co-milled IBU was confirmed by DSC and X-RD study. Drug release studies were conducted by and using USP Dissolution apparatus II and media (e.g., acetate buffer) of pH 4.5. Formation of hydrogen bond between silanol groups of SYLOID® silica and functional groups of IBU were believe to be the key to drug amorphonisation in the co-milling process. To confirm the IBU amorphonisation, X-ray diffraction study (XRD) was conducted. […] Additionally, DSC studies were conducted to understand the amorphonisation and possible interaction between silanol groups of SYLOID® silica and IBU. DSC thermograms, shown in FIGS. 5A-5B, confirmed both change in enthalpy and symmetry of peak shape.

CC(C)Cc1ccc(C(C)C(=O)O)cc1 (stereo not shown) [IBU, ibuprofen]
amorphonisation of the crystalline drug into an amorphous state by (co-)milling: does not result in an amorphous form
